Here are results for 46 compounds from EP1247803A2, “Indolinone compounds suitable for modulation of protein kinases” (Sugen, Inc., priority 1996, dated 1998).

The test system of one test is MET. Nature of the test: MET biochemical kinase assay. Further details: species or system human; concentration or dose not given beside the values. The essentials:
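In this format, tyrosine phosphorylation of plate-captured human MET is followed in vitro after compound addition in ATP/divalent-cation buffer, detected by anti-phosphotyrosine-HRP with TMB substrate.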

Another test deals with T1, EGFR (Homo sapiens, UniProt P00533).
T1 construct: Add 7 ug A431 cell lysate per well (EGFR source); endogenous in cells; host or cells: A431
T1 sequence (P00533 25-1210): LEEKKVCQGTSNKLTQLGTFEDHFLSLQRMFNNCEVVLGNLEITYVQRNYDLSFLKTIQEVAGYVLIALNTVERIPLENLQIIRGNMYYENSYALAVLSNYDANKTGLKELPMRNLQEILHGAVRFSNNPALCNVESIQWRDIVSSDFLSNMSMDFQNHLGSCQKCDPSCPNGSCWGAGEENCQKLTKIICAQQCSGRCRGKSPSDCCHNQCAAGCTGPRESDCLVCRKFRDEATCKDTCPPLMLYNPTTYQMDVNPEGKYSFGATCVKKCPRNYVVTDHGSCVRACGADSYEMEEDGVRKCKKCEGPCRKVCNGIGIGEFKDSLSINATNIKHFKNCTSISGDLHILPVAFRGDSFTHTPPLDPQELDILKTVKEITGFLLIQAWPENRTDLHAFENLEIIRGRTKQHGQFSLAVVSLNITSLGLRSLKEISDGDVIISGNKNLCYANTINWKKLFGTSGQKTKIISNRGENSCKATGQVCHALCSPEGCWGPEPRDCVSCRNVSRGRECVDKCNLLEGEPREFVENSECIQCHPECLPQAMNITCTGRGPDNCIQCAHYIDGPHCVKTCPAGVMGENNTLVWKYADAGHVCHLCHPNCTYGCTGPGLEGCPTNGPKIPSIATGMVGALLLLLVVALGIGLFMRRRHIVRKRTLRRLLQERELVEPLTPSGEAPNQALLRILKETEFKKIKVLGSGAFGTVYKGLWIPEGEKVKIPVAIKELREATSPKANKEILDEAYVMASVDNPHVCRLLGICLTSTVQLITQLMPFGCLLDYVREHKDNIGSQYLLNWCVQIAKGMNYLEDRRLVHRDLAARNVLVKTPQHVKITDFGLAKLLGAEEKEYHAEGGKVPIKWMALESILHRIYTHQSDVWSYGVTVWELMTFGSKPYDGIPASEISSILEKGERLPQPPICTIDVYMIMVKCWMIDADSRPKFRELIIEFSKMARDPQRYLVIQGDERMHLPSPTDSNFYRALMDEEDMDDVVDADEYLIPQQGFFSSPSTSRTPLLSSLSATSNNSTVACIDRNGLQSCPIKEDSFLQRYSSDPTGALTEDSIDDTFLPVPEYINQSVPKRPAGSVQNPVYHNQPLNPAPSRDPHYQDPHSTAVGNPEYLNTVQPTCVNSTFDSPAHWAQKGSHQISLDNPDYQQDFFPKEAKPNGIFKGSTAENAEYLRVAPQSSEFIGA
Nature of the test: EGFR ELISA assay (in vitro kinase activity, EGFR captured from A431 cell lysate). Further details: concentration or dose not given beside the values. The test is classed as biochemical. The essentials: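 EGFR from A431 lysate was captured on plates coated with anti-EGFR antibody. Compounds were added 30 min before a 5 min phosphorylation with 3 µM ATP/5 mM MnCl2, which was stopped with 20 mM EDTA. Phosphotyrosine was detected with rabbit anti-phosphotyrosine, then a peroxidase-conjugated secondary and ABTS/H2O2, read at 410 nm.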
On the technique in general: In an ELISA, binding on a coated surface is turned into a signal by an enzyme label.

SMILES strings stand for the structures.

With `CNS(=O)(=O)c1ccc2c(c1)C(=Cc1coc3cc(C)c(C)cc3c1=O)C(=O)N2` [10731/D03], the “Met Kinase % Inhibition” value with MET amounted to 40.2%. Also, on EGFR, the “Biochem EGFR %Inhibition” value is on record as 16.3%.
`O=C1Nc2c(Br)cc(Br)cc2C1=Cc1c[nH]c(=O)[nH]c1=O` [10731/A08]: in the test on MET, the “Met Kinase % Inhibition” value amounted to 59.9%. Also, the “Biochem EGFR %Inhibition” value at EGFR is 25.7%.
As for `Cc1c(Br)ccc2c1C(=Cc1c[nH]c(=O)[nH]c1=O)C(=O)N2` [10731/C08], the “Met Kinase % Inhibition” value in the test on MET is reported as 25.8%. Further, on EGFR, the “Biochem EGFR %Inhibition” value is on record as 23.6%.
Taken in the same sequence, the figures for `COC1CC(C=C2C(=O)Nc3ccc(S(=O)(=O)N4CCOCC4)cc32)C(OC)O1` (centres unmarked) [10730/F10] were 42.1% and 6.2%.
On the same counts, the results for `Cc1c(Br)ccc2c1C(=Cc1coc3ccc(C(C)C)cc3c1=O)C(=O)N2` [10731/C05] are 78.3% and 35.5%.
Taken in the same sequence, the figures for `Cc1cc(C=C2C(=O)Nc3ccc(CCCl)cc32)oc1C` [10730/G11] were 46.1% and 26.2%.
Take `Cc1ccc2occ(C=C3C(=O)Nc4ccc(Br)c(C)c43)c(=O)c2c1` [10731/C06]: the “Met Kinase % Inhibition” value in the test on MET came out at 18.2%. At EGFR, the “Biochem EGFR %Inhibition” value came to 23.1%.
On the same counts, the results for `Cc1ccc2occ(C=C3C(=O)Nc4ccc(I)cc43)c(=O)c2c1` [10731/B06] are 56.2% and 37.5%.
On to `CCn1c2ccccc2c2cc(C=C3C(=O)Nc4c(Br)cc(Br)cc43)ccc21` [10731/A02], for which the “Met Kinase % Inhibition” value with MET is 23.9%. The “Biochem EGFR %Inhibition” value on EGFR worked out at 14.8%.
On the same counts, the results for `CCOC(=O)c1cc(C=C2C(=O)Nc3ccc(Br)c(C)c32)oc1C` [10718/C06] are 3.9% and 5.6%.
Regarding `Cc1cc2occ(C=C3C(=O)Nc4ccc(Br)c(C)c43)c(=O)c2cc1C` [10731/C03], the “Met Kinase % Inhibition” value in the test with MET was determined as 38.7%. Besides, the “Biochem EGFR %Inhibition” value on EGFR was determined as 9.1%.
For the compound `COc1cc(C=C2C(=O)Nc3ccc(CCCl)cc32)cc(OC)c1OC` [10730/G04], in the test with MET, the “Met Kinase % Inhibition” value was 47.7%. Further, the “Biochem EGFR %Inhibition” value at EGFR is recorded as -6.7%.
Taken in the same sequence, the figures for `CN1C(=O)C(=C2C(=O)Nc3c(Br)cc(Br)cc32)c2ccccc21` [10731/A10] were 41.2% and 26.3%.
Taken in the same sequence, the figures for `Cc1c(Br)ccc2c1C(=Cc1ccc(Cl)c([N+](=O)[O-])c1)C(=O)N2` [10718/C08] were 22.7% and 13.1%.
On the same counts, the results for `COc1ccc2[nH]cc(C=C3C(=O)Nc4ccc(I)cc43)c2c1` [10731/B09] are 29.6% and 15.0%.
For the compound `C=C(C)C1CC=C(C=C2C(=O)Nc3ccc(Br)c(C)c32)CC1` (centres unmarked) [10731/C04], the “Met Kinase % Inhibition” value in the test on MET was 32.5%. Moreover, the “Biochem EGFR %Inhibition” value on EGFR stood at 31.0%.
On the same counts, the results for `C=C(C)C1CC=C(C=C2C(=O)Nc3ccc(I)cc32)CC1` (centres unmarked) [10731/B04] are 71.0% and 31.3%.
Taken in the same sequence, the figures for `COc1ccc2[nH]cc(C=C3C(=O)Nc4ccc(Br)c(C)c43)c2c1` [10731/C09] were 22.7% and 16.8%.
On the same counts, the results for `CC(=O)n1cc(C=C2C(=O)Nc3ccc(CCCl)cc32)c2ccccc21` [10730/G05] are 35.8% and -18.2%.
Consider `O=C1Nc2c(Br)cc(Br)cc2C1=Cc1ccc[nH]1` [10717/A09], for which, in the test with MET, the “Met Kinase % Inhibition” value was determined as 9.4%. On EGFR, the “Biochem EGFR %Inhibition” value came to 37.7%.
On the same counts, the results for `Cc1ccc2occ(C=C3C(=O)Nc4c(Br)cc(Br)cc43)c(=O)c2c1` [10731/A06] are 53.0% and 30.1%.
Take `COc1ccc(C=C2C(=O)Nc3ccc(CCCl)cc32)c(OC)c1OC` [10730/G02]: in the test on MET, the “Met Kinase % Inhibition” value was found to be 41.1%. Further, the “Biochem EGFR %Inhibition” value on EGFR was found to be 20.8%.
On the same counts, the results for `CCn1c2ccccc2c2cc(C=C3C(=O)Nc4ccc(I)cc43)ccc21` [10731/B02] are 71.6% and 15.5%.
Consider `C=C(C)C1CC=C(C=C2C(=O)Nc3c(Br)cc(Br)cc32)CC1` (centres unmarked) [10731/A04], for which the “Met Kinase % Inhibition” value with MET is listed as 43.6%. For the same compound, the “Biochem EGFR %Inhibition” value at EGFR came out at 20.2%.
Taken in the same sequence, the figures for `Cc1c(O)ccc(C=C2C(=O)Nc3ccc(Br)c(C)c32)c1O` [10718/C09] were 38.2% and 26.5%.
`CN1C(=O)C(=C2C(=O)Nc3ccc(I)cc32)c2ccccc21` [10731/B10]: the “Met Kinase % Inhibition” value with MET turned out to be 72.9%. Further, the “Biochem EGFR %Inhibition” value on EGFR is 50.5%.
On the same counts, the results for `COC1CC(C=C2C(=O)Nc3ccc(CCCl)cc32)C(OC)O1` (centres unmarked) [10730/G10] are 42.1% and 3.1%.
On to `O=C1Nc2ccc(S(=O)(=O)N3CCOCC3)cc2C1=Cc1coc2c(Br)cc(Br)cc2c1=O` [10730/F09], for which the “Met Kinase % Inhibition” value in the test with MET is given as 71.1%. At EGFR, the “Biochem EGFR %Inhibition” value was 17.9%.
Regarding `O=C1Nc2ccc(CCCl)cc2C1=Cc1ccc(-c2ccccc2Cl)o1` [10730/G07], the “Met Kinase % Inhibition” value with MET stood at 26.2%. Besides, the “Biochem EGFR %Inhibition” value on EGFR is given as 6.4%.
With `O=C1Nc2ccc(I)cc2C1=Cc1c[nH]c(=O)[nH]c1=O` [10731/B08], the “Met Kinase % Inhibition” value with MET is recorded as 57.4%. In addition, the “Biochem EGFR %Inhibition” value at EGFR stood at 37.2%.
Taken in the same sequence, the figures for `CC(C)c1ccc2occ(C=C3C(=O)Nc4c(Br)cc(Br)cc43)c(=O)c2c1` [10731/A05] were 85.8% and 34.3%.
With `CCn1c2ccccc2c2cc(C=C3C(=O)Nc4ccc(Br)c(C)c43)ccc21` [10731/C02], in the test on MET, the “Met Kinase % Inhibition” value is reported as 11.1%. The “Biochem EGFR %Inhibition” value on EGFR is -6.9%.
On to `O=C1Nc2ccc(I)cc2C1=Cc1coc2ccc([N+](=O)[O-])cc2c1=O` [10731/B07], for which, in the test with MET, the “Met Kinase % Inhibition” value is 41.6%. Also, the “Biochem EGFR %Inhibition” value at EGFR worked out at 29.1%.
Turning to `Cc1c(Br)ccc2c1C(=C1C(=O)N(C)c3ccccc31)C(=O)N2` [10731/C10], the “Met Kinase % Inhibition” value in the test on MET is 23.3%. Also, the “Biochem EGFR %Inhibition” value on EGFR came to 20.9%.
On the same counts, the results for `COc1ccc2[nH]cc(C=C3C(=O)Nc4c(Br)cc(Br)cc43)c2c1` [10731/A09] are 46.7% and 21.9%.
Taken in the same sequence, the figures for `Cc1c(Br)ccc2c1C(=Cc1coc3ccc([N+](=O)[O-])cc3c1=O)C(=O)N2` [10731/C07] were -11.6% and 35.5%.
For the compound `CCn1c2ccccc2c2cc(C=C3C(=O)Nc4ccc(S(=O)(=O)NC)cc43)ccc21` [10731/D02], the “Met Kinase % Inhibition” value in the test with MET is 8.7%. In addition, the “Biochem EGFR %Inhibition” value on EGFR is listed as 4.9%.
As for `Cc1cc(C=C2C(=O)Nc3ccc(S(=O)(=O)N4CCOCC4)cc32)oc1C` [10730/F11], the “Met Kinase % Inhibition” value with MET came out at 53.6%. The “Biochem EGFR %Inhibition” value on EGFR is -24.1%.
Taken in the same sequence, the figures for `COC(=O)c1[nH]c(C)c(C=C2C(=O)Nc3ccc(Br)c(C)c32)c1C(=O)OC` [10718/C07] were 29.6% and -4.9%.
Consider `O=C1Nc2ccc(CCCl)cc2C1=Cc1cc2ccccc2nc1Cl` [10730/G08], for which the “Met Kinase % Inhibition” value in the test on MET came out at 16.6%. Besides, the “Biochem EGFR %Inhibition” value at EGFR was determined as 9.5%.
Take `Cc1cc2occ(C=C3C(=O)Nc4c(Br)cc(Br)cc43)c(=O)c2cc1C` [10731/A03]: the “Met Kinase % Inhibition” value in the test with MET is reported as 54.8%. Moreover, the “Biochem EGFR %Inhibition” value on EGFR turned out to be 10.8%.
Taken in the same sequence, the figures for `COc1cc(OC)c(OC)cc1C=C1C(=O)Nc2ccc(CCCl)cc21` [10730/G03] were 43.2% and -6.9%.
Taken in the same sequence, the figures for `CC(C)c1ccc2occ(C=C3C(=O)Nc4ccc(I)cc43)c(=O)c2c1` [10731/B05] were 86.0% and 35.9%.
Taken in the same sequence, the figures for `O=C1Nc2c(Br)cc(Br)cc2C1=Cc1coc2ccc([N+](=O)[O-])cc2c1=O` [10731/A07] were 49.5% and 39.4%.
Regarding `Cc1cc2occ(C=C3C(=O)Nc4ccc(I)cc43)c(=O)c2cc1C` [10731/B03], in the test on MET, the “Met Kinase % Inhibition” value was 60.9%. Besides, the “Biochem EGFR %Inhibition” value on EGFR was 12.3%.
As to `CCOC(=O)CCc1c(C(=O)OCC)[nH]c(C=C2C(=O)Nc3ccc(Br)c(C)c32)c1CC(=O)OCC` [10718/C05], in the test on MET, the “Met Kinase % Inhibition” value was determined as 8.7%. Also, the “Biochem EGFR %Inhibition” value on EGFR is recorded as 10.9%.
